Assay results: patent US20200289554A1, “BIOORTHOGONAL COMPOUNDS COMPRISING A PROPARGYL GROUP FOR TREATING CANCER” (THE UNIVERSITY COURT OF THE UNIVERSITY OF EDINBURGH, priority 2016, published 2020)

Key:
HCT116 cells [1] = test: Prodrug safety dose-response cell viability (PrestoBlue), HCT116; assay type: cell-based; details: Homo sapiens, HCT-116, 120 h, 5 days, no catalyst
Method: (§1) These cell lines were selected as these are primary malignancies against which the parental drugs are currently prescribed.
(§2) The toxicities of each active agent and prodrugs were compared by performing dose-response studies. […] Cell viability was analysed by fluoresce intensity (λex=540 nm; λem=590 nm) after 60-90 min incubation with PrestoBlue™ Reagent (Life Technologies).

BxPC3 cells [2] = test: Prodrug safety dose-response cell viability (PrestoBlue), BxPC3; assay type: cell-based; details: Homo sapiens, BXPC-3, 120 h, 5 days, no catalyst
Method: as §1, §2

HCT116 cells [3] = test: BOOM conversion: prodrug + Pd0-resins in cell culture, cell viability, HCT116; assay type: cell-based, human; details: Pd0-resin 1 mg/mL, 30 μM prodrug
Method: (§3) Cell viabilities for each prodrug provided as a combination with palladium is presented in FIG. 16 in the right of each set of two bars. Data for prodrug in the absence of palladium catalyst is also provided (the left bar of each set of two bars) for comparison along with negative controls (from left to right: DMSO, Pd^0 and 5FU). Cells were incubated in tissue culture media containing 0.1% (v/v) DMSO and: Pd^0-resins (1 mg/mL, negative control); 3 μM (for BxPC3 cells) or 30 μM (for HCT116 cells) of prodrug (negative control); and Pd^0-resins (1 mg/mL)+3 μM (BxPC3) or 30 μM (HCT116) of each prodrug (BOOM reaction assay). […]
(§4) Following 5 days treatment, cells were incubated with PrestoBlue™ Cell Viability Reagent (Life Technologies) for 90 min. Fluorescence intensity values were related to the untreated cells (100% cell viability). […]
(§5) The toxigenic effect as a result of in situ generation of parental drug in cell culture was determined by incubating all cells in tissue culture media containing 0.1% (v/v) DMSO and a) Pd^0, Au, or Pd/Au-resin (1 mg/mL for all cells tested, negative control); b) prodrug (negative control); or c) Pd^0, Au, or Pd/Au-resin (1 mg/mL for all cells)+prodrug (reaction assay). […]
(§6) A dose response study was performed for each cell line keeping the quantity of Pd^0 resin constant (0.8 mg/mL for U87G and 1 mg/mL for the rest of cell lines). […]

BxPC3 cells [4] = test: BOOM conversion: prodrug + Pd0-resins in cell culture, cell viability, BxPC3; assay type: cell-based, human; details: Pd0-resin 1 mg/mL, 3 μM prodrug
Method: as §3, §4, §5, §6

A549 cells = test: Prodrug safety dose-response cell viability (PrestoBlue), A549; assay type: cell-based; details: Homo sapiens, 120 h, 5 days, no catalyst
Method: as §1, §2

DU145 cells = test: Prodrug safety dose-response cell viability (PrestoBlue), DU145; assay type: cell-based; details: Homo sapiens, DU-145, 120 h, 5 days, no catalyst
Method: as §1, §2

T98 cells = test: Prodrug safety dose-response cell viability (PrestoBlue), T98; assay type: cell-based; details: Homo sapiens, 120 h, 5 days, no catalyst
Method: as §1, §2

A2780 cells = test: Prodrug safety dose-response cell viability (PrestoBlue), A2780; assay type: cell-based; details: Homo sapiens, 120 h, 5 days, no catalyst
Method: as §1, §2

U87G cells [5] = test: BOOM conversion: prodrug + Pd0-resins in cell culture, cell viability, U87G; assay type: cell-based, human; details: Pd0-resin, SN-38 prodrug
Method: Following 5 days treatment, cells were incubated with PrestoBlue™ Cell Viability Reagent (Life Technologies) for 60-90 min. Fluorescence intensity values were related to the untreated cells (100% cell viability). […] Cells incubated in 0.1% (v/v) DMSO in media were used as untreated cell control.
The toxigenic effect as a result of in situ generation of parental drug in cell culture was determined by incubating all cells in tissue culture media containing 0.1% (v/v) DMSO and a) Pd^0, Au, or Pd/Au-resin (1 mg/mL for all cells tested, negative control); b) prodrug (negative control); or c) Pd^0, Au, or Pd/Au-resin (1 mg/mL for all cells)+prodrug (reaction assay). Cells incubated in 0.1% (v/v) DMSO in media was used as an untreated cell reference standard (100% viability). A PrestoBlue® cell viability assay as described above was carried out and fluorescent intensities compared to the untreated cell control.
(§7) A dose response study was performed for each cell line keeping the quantity of Pd^0 resin constant (0.8 mg/mL for U87G and 1 mg/mL for the rest of cell lines). […] Fluorescence intensity values (detected using a PerkinElmer EnVision 2101 multilabel reader with excitation filter at 540 nm and emissions filter at 590 nm) were determined relative to the untreated cell control.

U87G cells [6] = test: Prodrug safety dose-response cell viability (PrestoBlue), U87G; assay type: cell-based, human; details: Homo sapiens, 120 h, read-out: EC50 (cell viability)
Method: as §1, §2

MiaPaCa2 cells [7] = test: Prodrug safety dose-response cell viability (PrestoBlue), MiaPaCa2; assay type: cell-based, human; details: relative to Gemcitabine
Method: as §1, §2

MiaPaCa2 cells [8] = test: BOOM conversion: prodrug + Pd0-resins in cell culture, cell viability, MiaPaCa2; assay type: cell-based, human
Method: Cell viabilities for each prodrug provided as a combination with palladium is presented in FIG. 10 in the right of each set of two bars. Data for prodrug in the absence of palladium catalyst is also provided (the left bar of each set of two bars) for comparison along with negative controls (from left to right: DMSO, Pd^0 and Gemcitabine). Cells were incubated in tissue culture media containing 0.1% (v/v) DMSO and: Pd^0-resins (1 mg/mL, negative control); 0.03 μM of each prodrug (negative control); and Pd^0-resins (1 mg/mL)+0.03 μM of each prodrug (BOOM reaction assay). Cells incubated in 0.1% (v/v) DMSO in media were used as untreated cell control.
Following 5 days treatment, cells were incubated with PrestoBlue™ Cell Viability Reagent (Life Technologies) for 90 min. Fluorescence intensity values were related to the untreated cells (100% cell viability). Data are provided in FIG. 11 for cells incubated in tissue culture media containing 0.1% (v/v) DMSO and: Pd^0-resins (1 mg/mL, negative control); 0.003-0.3 μM of pPOBC-Gem (negative control); 0.003-0.3 μM of Gemcitabine (positive control); and Pd^0-resin (1 mg/mL)+pPOBC-Gem (BOOM reaction assay). Cells incubated in 0.1% (v/v) DMSO in media were used as untreated cell control.
as §5, with “assay). Cells incubated in 0.1% (v/v) DMSO in media was used as an untreated cell reference standard (100% viability).” for “assay).”
as §7

O=c1[nH]cc(F)c(=O)[nH]1 [5FU, 5-fluorouracil, reference compound]
EC50 (HCT116 cells [1]): 1500 nM | EC50 (BxPC3 cells [2]): 140 nM

C#CCOc1ncc(F)c(OCC#C)n1 [Bis-Pro-5FU, 2,4-bispropargyl-5-fluorouracil]
EC50 (HCT116 cells [1]): > 100000 nM | EC50 (BxPC3 cells [2]): > 100000 nM | toxigenic effect of prodrug + Pd0 resins (HCT116 cells [3]): strong toxigenic effect | toxigenic effect of prodrug + Pd0 resins (BxPC3 cells [4]): strong toxigenic effect

COc1cccc2c1C(=O)c1c(O)c3c(c(O)c1C2=O)C[C@@](O)(C(=O)CO)C[C@@H]3O[C@H]1C[C@H](N)[C@H](O)[C@H](C)O1 [Doxorubicin, reference compound]
EC50 (A549 cells): 105 nM | EC50 (DU145 cells): 23 nM | EC50 (T98 cells): 320 nM

O=C(c1cc(Cc2n[nH]c(=O)c3ccccc23)ccc1F)N1CCN(C(=O)C2CC2)CC1 [Olaparib, reference compound]
EC50 (A2780 cells): 1870 nM

C#CCOc1nnc(Cc2ccc(F)c(C(=O)N3CCN(C(=O)C4CC4)CC3)c2)c2ccccc12 [Prop-Olap, 4-[(3-[(4-cyclopropylcarbonyl)piperazin-4-yl]carbonyl)-4-fluorophenyl]methyl-phthalazin-1-oxypropargyl]
EC50 (A2780 cells): > 100000 nM

C#CCOc1cccc(OCC#C)c1COc1ccc2nc3c(c(CC)c2c1)Cn1c-3cc2c(c1=O)COC(=O)[C@]2(O)CC [di-oPOB-SN-38, (S)-9-((2,6-bis(prop-2-yn-1-yloxy)benzyl)oxy)-4,11-diethyl-4-hydroxy-1,12-dihydro-14H-pyrano[3′,4′:6,7]indolizino[1,2-b]quinoline-3,14(4H)-dione]
toxigenic effect of prodrug + Pd0 resins (U87G cells [5]): strong toxigenic effect | EC50 (U87G cells [6]): 3150 nM

C#CCOc1ccc(COC(=O)Nc2ccn(C3OC(CO)C(O)C3(F)F)c(=O)n2)cc1 (stereo not shown) [pPOBC-Gem, 4-proparglyoxybenzylcarbamoyl Gemcitabine]
reduction in the cytotoxic effect relative the parent active agent (MiaPaCa2 cells [7]): 27 fold | EC50 (MiaPaCa2 cells [8]; Homo sapiens, MIA PaCa-2, 120 h, prodrug in combination with Pd0-resins 1 mg/mL, 5 days, read-out: EC50, prodrug + Pd-resins): 226 nM | toxigenic effect of prodrug + Pd0 resins (MiaPaCa2 cells [8]; Pd0-resin 1 mg/mL, 0.03 μM Gemcitabine prodrugs): strong toxigenic effect
